The test system of test [1] is extirpated intestine of guinea pig. The experiment in a line: suppressing effect on shrinkage of extirpated intestine of guinea pig by electric stimulations (method of Kosterlitz). The test is classed as cell-based. The settings on record: for ED50 (mol) (mean ± s.e.m.): suppression of electrically stimulated shrinkage of extirpated guinea pig intestine, in vitro. The procedure:
Adamantylated enkephalin derivatives a and b obtained in Examples 1 and 2 were examined for in vivo analgesic effect and in vitro suppressing effect to shrinkage of extirpated intestine of guinea pig by electric stimulations.
A suppressing effect for the shrinkage of extirpated intestine of guinea pig of the adamantylated enkephalin derivatives a and b was measured in accordance with the method of Kosterlitz (H. W. Kosterlitz, A. A. Watterfield, Ann. Rev. Pharmacol., 15, 29, (1975)).

Test [2] relates to mouse (dd-Y series). The experiment in a line: in vivo analgesic activity by Randall Selitto method. The settings on record: subcutaneous administration to mouse, 1-50 mg/kg, in DMA: physiological saline (4:6); FIG. 2-5. On the procedure:
Adamantylated enkephalin derivatives a and b are subcutaneously administrated to a mouse, and an analgesic effect in the central nervous system was measured by Randall Selitto method. That is, the derivatives a and b were dissolved in a mixed solution of DMA: physiological saline solution (4:6) and about 100 μl of the solution was subcutaneously administrated to a mouse (dd-Y series: about 20 g) (1-50 mg/kg), and the analgesic effect was measured on every predetermined time interval after the administration by the Randall Selitto method.

Turning to `CC(C)C[C@H](NC(=O)[C@H](Cc1ccccc1)NC(=O)CNC(=O)[C@@H](C)NC(=O)[C@@H](N)Cc1ccc(O)cc1)C(=O)O` [[D-Ala^2] Leucine enkephalin, H-Tyr-D.Ala-Gly-Phe-Leu-OH, reference compound], in test [1], the “Relative Potency” value worked out at 0.89 and the “ED50 (mol) (mean ± s.e.m.)” value is 3.6 ± 1.17 × 10^-8 mol.
Take “H-Tyr-D.Ala-Gly-Phe-Leu-NH-Ada [Derivative b]”: the analgesic activity entry in test [2] is reported as “inferior to morphine hydrogen chloride but superior to the controls”. For the same compound, in test [1], the “Relative Potency” value is 2.13 and the “ED50 (mol) (mean ± s.e.m.)” value is 1.5 ± 0.71 × 10^-8 mol. Also, the “suppression for shrinkage, antagonism by naloxon” value in test [1] (extirpated guinea pig intestine) is “showed suppression for shrinkage each of which was antagonized by naloxon”.
